# Earlier results, collected in patent US12409155B1, “Ready to use LET formulations” (QuVa Pharma, Inc., priority 2021, dated 2025).
# Details: Handbook
compound,measurement,value
O=C(O)CC(O)(CC(=O)O)C(=O)O [citric acid],pKa2,4.76
